In patent publication US6613512B1, “Apparatus and method for correcting for variable velocity in microfluidic systems” (Caliper Technologies Corp., priority 1997, dated 2003):

Key:
Type in all cases: biochemical
HCV protease = target: T1, HCV protease (Hepatitis C virus genotype 1a, UniProt P27958); details: Chip; 25 mM TRIS/HCL, pH 8.5, 0.1% Triton X-100, 10 mM DTT, 1M NDSB-195
T1 construct: HCV protease was used in a similar fluorogenic assay
Procedure: The product fluorescence is proportional to the amount of cleaved substrate. The height of the product signal is proportional to the rate of enzyme turnover for that substrate concentration. The rate of fluorescence generation can be assessed as the fluorescence signal per mixing time of substrate and enzyme in the reaction channel. That mixing time is determined by the mean residence time of the fluorescent product in the reaction channel as it is electrokinetically pumped from the source of the mixing to the detector. Km was determined from the Michaelis Menton equation.
Due to the chemistry of this FRET quenching reaction, several considerations for accurate measurement of Km on the Labchip™ exist. (1.) There is not an accurate calibration curve for the EDANS labeled product. (2) Accurate determination of the substrate concentration in the Labchip™ reagent well by a simple spectrophotometric measurement is not performed. […]
Note however that this well controlled background fluorescence is not the substrate only background. The extent of substrate hydrolysis over time could not be measured in the continuous flow analysis where enzyme was pumped throughout the course of the experiments. […]
The average percent inhibition response was calculated for the first three inhibited and uninhibited signals at the start of each hour.

LAR phosphatase [1] = target: T2, LAR phosphatase (Homo sapiens, UniProt P10586); test: Continuous flow LAR phosphatase assay with fluorogenic substrate dFMUP on a 7A microchip
Description: In many cases, the biochemical system that is being assayed can be selected or engineered to have an easily detectable result. For example, assaying enzyme function is typically made simple by utilizing fluorogenic substrates for the enzyme, e.g., non-fluorescent substrates which yield fluorescent products. Such assays are readily incorporated into microfluidic devices for performance of assays to identify compounds that may effect normal enzyme activity. In one embodiment, using a 7A chip as described supra (see, e.g., FIG. 7), one continuously flows enzyme and fluorogenic substrate through a channel of the device. This continuous flow of enzyme and substrate produces a steady state fluorescent signal from the fluorescent product. Enzyme inhibitor (or, e.g., compounds for which one wishes to test inhibitory activity) are periodically introduced into the main channel. These inhibitors then reduce the amount of product produced within the main channel resulting in a deviation from the steady state signal. Specifically, both phosphatase assays and protease assays were performed using a 7A chip.
The phosphatase assay utilizes a fluorogenic substrate dFMU, which produces a fluorescent signal upon dephosphorylation. The reaction is shown schematically in FIG. 12. […] In this experiment, the running buffer was 1 M NDSB-195 in 25 mM HEPES, pH 7.9. Reagent concentrations were 125 nM LAR, 50 μM dFMUP and 200 μM peptide inhibitor in wells 6, 8 and 2 respectively. Each reagent well was paired with a well containing running buffer. The system was programmed to repeatedly run a sixteen-step loop of experiments. The sixteen steps were a series of controls followed by the enzyme plus substrate experiment. Each step of the loop conserved the total current flux in the main reaction channel. The total flux remained constant during each step of the loop by maintaining a constant sum of currents from the wells. The proportion of that overall flux from each reagent and buffer well was selected to provide the desired final reagent concentration in the main reaction channel. The fluorescence response was monitored in each of the sixteen experimental steps where the continuous flow stream alternated between buffer, substrate, buffer, substrate plus enzyme at four different substrate concentrations. An example of a controller program is shown below, Table 2.
The substrate concentration was varied for each sequence of three controls followed by the enzyme reaction. The concentrations of the reagents in the main channel can be calculated from the ratio of currents used to pump the reagents. The concentrations in the reaction channel are simply the concentration in the well multiplied by the ratio of current applied at that well, divided by the total current. Here the reaction mixture was […], and either 5, 12.5, 17 or 25 μM dFMUP. The raw fluorescence data is plotted as a function of time. […] Rise times for the enzyme/substrate signal are less than 5 seconds. The background signal remained low over the course of many experimental cycles.
The raw data for the Km, Vmax, kcat and Ki determinations are plotted in FIG. 14. Each trace represents a set of experiments performed in seven step cycles. The enzyme solution was pumped continuously, providing a final concentration of 83 nM LAR in 1 M NDSB-195, 50 mM HEPES, pH 7.5 in the reaction channel, while the signal at various substrate concentrations was recorded. The first step of the cycle is an enzyme only control. Steps two through six contain different levels of substrate up to an including 17 μM dFMUP. The final step of the cycle is a substrate only control, 17 μM dFMUP with no enzyme. The entire experiment, (no peptide inhibitor), was repeated at two inhibitor concentrations, 35 uM and 69 uM peptide. […]

LAR phosphatase [2] = target: T2, LAR phosphatase; test: LAR phosphatase/dFMUP assay in a cuvette on the spectrophotometer; details: 1M NDSB-195/50 mM Hepes, pH 7.5, 0.1 mg/ml BSA
Procedure: A least squares fit of the three straight lines: no inhibitor, 35 μM and 69 μM peptide, was performed with the constraint that they meet at a common intercept on the y axis, 1/Vmax FIG. 15. […] The kcat is 4.74 μmol/min nmol LAR. The parallel analysis performed on the spectrophotometer in the same running buffer yielded a kcat of 6 μmol/min nmol LAR. […] The same analysis performed in a cuvette experiment with 1 mg/ml BSA in the running buffer gave 167 μM peptide.
In addition to the above kinetic studies, rate as a function of substrate concentration data was collected on three separate chips in order to consider interchip reproducibility for Km analyses. The combined data were used to prepare a double reciprocal plot. […] This is in excellent agreement with cuvette experiments performed on the spectrophotometer where dFMU was detected at 360 nm in a temperature controlled cuvette at 25° C.

[3] = chip, 50 mM HEPES, pH 7.5, 10 mM DTT, 0.5 M NDSB-195

T2 sequence (P10586 30-1907): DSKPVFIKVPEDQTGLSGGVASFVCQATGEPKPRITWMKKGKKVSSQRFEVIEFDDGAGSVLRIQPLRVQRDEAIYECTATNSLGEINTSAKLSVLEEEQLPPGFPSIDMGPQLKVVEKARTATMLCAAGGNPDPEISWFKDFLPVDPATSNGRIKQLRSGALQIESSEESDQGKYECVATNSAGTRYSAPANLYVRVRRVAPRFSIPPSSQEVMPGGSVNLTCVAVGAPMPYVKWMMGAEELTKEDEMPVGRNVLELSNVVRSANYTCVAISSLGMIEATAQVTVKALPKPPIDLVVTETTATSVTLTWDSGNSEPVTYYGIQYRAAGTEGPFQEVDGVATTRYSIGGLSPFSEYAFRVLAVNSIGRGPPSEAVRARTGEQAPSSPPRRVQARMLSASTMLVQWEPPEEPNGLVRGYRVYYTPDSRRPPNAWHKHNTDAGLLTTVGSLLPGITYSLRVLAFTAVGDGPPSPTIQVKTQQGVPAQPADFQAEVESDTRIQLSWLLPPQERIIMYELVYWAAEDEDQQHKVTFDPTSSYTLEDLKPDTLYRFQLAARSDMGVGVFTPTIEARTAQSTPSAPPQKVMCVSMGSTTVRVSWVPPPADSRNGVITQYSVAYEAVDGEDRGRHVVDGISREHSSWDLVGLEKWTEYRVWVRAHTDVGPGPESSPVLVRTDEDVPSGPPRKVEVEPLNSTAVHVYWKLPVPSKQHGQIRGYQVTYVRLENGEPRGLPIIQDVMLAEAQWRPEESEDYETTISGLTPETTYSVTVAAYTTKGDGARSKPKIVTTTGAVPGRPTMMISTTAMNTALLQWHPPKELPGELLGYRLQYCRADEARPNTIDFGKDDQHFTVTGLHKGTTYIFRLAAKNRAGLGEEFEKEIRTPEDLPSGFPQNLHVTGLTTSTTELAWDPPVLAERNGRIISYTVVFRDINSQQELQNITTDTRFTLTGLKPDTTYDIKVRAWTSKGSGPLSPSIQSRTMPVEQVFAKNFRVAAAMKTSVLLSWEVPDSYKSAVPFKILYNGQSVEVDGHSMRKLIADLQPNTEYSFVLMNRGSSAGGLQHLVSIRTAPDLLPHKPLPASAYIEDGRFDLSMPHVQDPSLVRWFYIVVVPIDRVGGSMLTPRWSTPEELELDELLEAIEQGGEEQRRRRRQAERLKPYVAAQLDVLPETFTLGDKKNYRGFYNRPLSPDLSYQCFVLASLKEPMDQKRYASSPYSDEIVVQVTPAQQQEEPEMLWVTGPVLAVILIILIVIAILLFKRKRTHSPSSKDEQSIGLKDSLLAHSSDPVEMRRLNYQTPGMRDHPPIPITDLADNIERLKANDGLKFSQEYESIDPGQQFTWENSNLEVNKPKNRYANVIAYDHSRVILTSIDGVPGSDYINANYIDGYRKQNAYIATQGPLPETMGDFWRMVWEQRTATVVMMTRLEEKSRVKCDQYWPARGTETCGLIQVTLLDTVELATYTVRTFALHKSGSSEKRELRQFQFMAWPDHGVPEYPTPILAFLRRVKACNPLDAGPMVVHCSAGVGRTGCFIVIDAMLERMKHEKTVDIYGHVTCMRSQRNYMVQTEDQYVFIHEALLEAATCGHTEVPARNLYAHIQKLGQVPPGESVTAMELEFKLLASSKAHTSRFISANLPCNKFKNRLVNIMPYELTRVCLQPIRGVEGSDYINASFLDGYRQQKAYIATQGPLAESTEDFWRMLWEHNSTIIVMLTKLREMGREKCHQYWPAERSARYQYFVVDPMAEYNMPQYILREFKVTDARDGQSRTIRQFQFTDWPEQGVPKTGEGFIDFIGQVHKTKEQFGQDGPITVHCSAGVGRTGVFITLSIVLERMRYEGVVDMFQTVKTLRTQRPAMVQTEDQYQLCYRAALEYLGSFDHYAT
T1 sequence (P27958 1027-1208): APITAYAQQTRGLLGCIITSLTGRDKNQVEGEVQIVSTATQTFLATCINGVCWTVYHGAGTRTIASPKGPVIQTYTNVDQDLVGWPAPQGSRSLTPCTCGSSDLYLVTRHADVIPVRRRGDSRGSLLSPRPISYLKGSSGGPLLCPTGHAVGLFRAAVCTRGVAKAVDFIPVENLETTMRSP

SMILES	Km (HCV protease) [µM]	kcat (LAR phosphatase [1]; Chip, 1M NDSB-195/50 mM Hepes, pH 7.5, 83 nM LAR) [μmol/min nmolLAR]	Km (LAR phosphatase [1]; Chip, 1M NDSB-195/50 mM Hepes, pH 7.5, average of three chips, read-out: Km LAR/dFMUP) [µM]	Km (LAR phosphatase [1]; Chip, combined data of three separate chips, double reciprocal plot, read-out: Km) [µM]	Vmax (LAR phosphatase [1]; Chip, least squares fit of Lineweaver-Burke lines, 83 nM LAR) [μM dFMU/s]	Vmax (LAR phosphatase [1]; [3]) [mM/s]	kcat (LAR phosphatase [1]; [3]) [min⁻¹]	Km (LAR phosphatase [1]; chip, 50 mM HEPES, pH 7.5, 10 mM DTT, 0.5 M NDSB-195, read-out: Km) [µM]	kcat (LAR phosphatase [2]; Cuvette (spectrophotometer)) [μmol/min nmolLAR]	Km (LAR phosphatase [2]; Cuvette, 25° C, average of four determinations) [µM]
C/C=C1\NC(=O)[C@H]2CSSCC/C=C/[C@H](CC(=O)N[C@H](C(C)C)C(=O)N2)OC(=O)[C@H](C(C)C)NC1=O [Depsipeptide]	110	–	–	–	–	–	–	–	–	–
Cc1cc(=O)oc2c(F)c(OP(=O)(O)O)c(F)cc12 [dFMUP]	–	4.74	18.7	18.2	6.71	0.011	3000 to 5000	20 to 400	6	23.2
